# Experiments:
# Rattus norvegicus = experiment: Antiinflammatory activity against po dosed carrageenan-induced rat foot paw edema after 3 hrs; assay type: functional
# [1] = biological target: T1, Prostaglandin G/H synthase 1 (Ovis aries, UniProt P05979)
# T1 sequence (P05979 whole entry): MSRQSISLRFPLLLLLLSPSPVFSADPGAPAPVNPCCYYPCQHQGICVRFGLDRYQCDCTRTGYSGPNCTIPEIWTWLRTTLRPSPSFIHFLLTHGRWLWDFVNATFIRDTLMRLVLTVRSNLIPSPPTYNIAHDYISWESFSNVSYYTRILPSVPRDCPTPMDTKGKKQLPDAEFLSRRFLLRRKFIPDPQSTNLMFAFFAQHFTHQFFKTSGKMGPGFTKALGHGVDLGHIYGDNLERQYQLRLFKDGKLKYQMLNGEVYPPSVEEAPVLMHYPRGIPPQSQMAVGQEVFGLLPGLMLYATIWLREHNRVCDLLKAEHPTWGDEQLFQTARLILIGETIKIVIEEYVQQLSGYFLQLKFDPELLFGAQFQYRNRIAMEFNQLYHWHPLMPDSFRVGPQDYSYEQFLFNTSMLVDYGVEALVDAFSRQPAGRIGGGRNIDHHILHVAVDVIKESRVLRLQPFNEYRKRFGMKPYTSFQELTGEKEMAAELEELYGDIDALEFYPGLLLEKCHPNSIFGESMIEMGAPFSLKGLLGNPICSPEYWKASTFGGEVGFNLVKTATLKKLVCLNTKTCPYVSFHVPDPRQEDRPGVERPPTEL
# Description: Inhibition of ovine COX1 by enzyme immuno assay
# [2] = Effect on nitric oxide release in phosphate buffer at pH 7.4 after 1.5 hrs in presence of rat serum; assay type: ADME; conditions: pH 7.4, 1.5 h
# [3] = Effect on nitric oxide release in phosphate buffer at pH 7.4 after 1.5 hrs; assay type: physicochemical; conditions: pH 7.4, 1.5 h
IC50 [1],Activity [2],Activity [3],SMILES,ED50 (Rattus norvegicus)
8.6 µM,,,CS(=O)(=O)c1ccc(-n2nc(C(F)(F)F)cc2-c2ccc(CO)cc2)cc1,112 µmol/kg
> 100 µM,76%,8.2%,CC(=O)OCO/N=[N+](\[O-])N1CCC[C@H]1C(=O)OCc1ccc(-c2cc(C(F)(F)F)nn2-c2ccc(S(N)(=O)=O)cc2)cc1,94.3 µmol/kg
,77%,6.1%,CC(=O)OCO/N=[N+](\[O-])N1CCC[C@H]1C(=O)OCc1ccc(-c2cc(C(F)(F)F)nn2-c2ccc(S(C)(=O)=O)cc2)cc1,76.7 µmol/kg
,,,CC(=O)Oc1ccccc1C(=O)O [ASPIRIN],710 µmol/kg
,,,Cc1ccc(-c2cc(C(F)(F)F)nn2-c2ccc(S(N)(=O)=O)cc2)cc1 [CELECOXIB],30.9 µmol/kg
,,,CC(C)Cc1ccc(C(C)C(=O)O)cc1 (stereo not drawn) [IBUPROFEN],327 µmol/kg
,,,NS(=O)(=O)c1ccc(-n2nc(C(F)(F)F)cc2-c2ccc(CO)cc2)cc1 [PRIMARY ALCOHOL METABOLITE OF CELECOXIB],77.1 µmol/kg
